In PubChem BioAssay (NCI):
Where “and” joins values, the source holds several entries; their conditions need not be identical. Equal entries are not always repeated.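 A five-concentration, 48-hour dose response in 96-well plates underlies each endpoint, interpolated linearly between surrounding concentrations. GI50 marks 50% less growth. TGI: concentration producing complete growth inhibition.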

Legend:
Assay in all cases: NCI anticancer screen, dose series, 48 h
SK-MEL-2 melanoma = test system: SK-MEL-2 melanoma
CAKI-1 renal = test system: CAKI-1 renal
SK-OV-3 ovarian = test system: SK-OV-3 ovarian
IGROV1 ovarian = test system: IGROV1 ovarian
UACC-257 melanoma = test system: UACC-257 melanoma
SW-620 colon = test system: SW-620 colon
SF-539 CNS = test system: SF-539 CNS
MDA-MB-231 breast = test system: MDA-MB-231 breast
SK-MEL-28 melanoma = test system: SK-MEL-28 melanoma
K-562 leukemia = test system: K-562 leukemia

Row | SMILES | TGI (SK-MEL-2 melanoma) | GI50 (CAKI-1 renal) | TGI (CAKI-1 renal) | TGI (SK-OV-3 ovarian) | GI50 (IGROV1 ovarian) | TGI (IGROV1 ovarian) | TGI (UACC-257 melanoma) | GI50 (SW-620 colon) | TGI (SW-620 colon) | TGI (SF-539 CNS) | GI50 (MDA-MB-231 breast) | TGI (MDA-MB-231 breast) | GI50 (SK-MEL-28 melanoma) | TGI (SK-MEL-28 melanoma) | GI50 (K-562 leukemia) | TGI (K-562 leukemia) | GI50 (SK-MEL-2 melanoma) | GI50 (SK-OV-3 ovarian) | GI50 (UACC-257 melanoma) | GI50 (SF-539 CNS)
1 | CC[C@H](CO)Nc1nc(NCc2ccccc2)c2ncn(C(C)C)c2n1 | 44.6 µM | 10.9 µM | > 100 µM | > 100 µM | 11.9 µM | > 86.2 µM | 98.7 µM | 49.3 µM | > 100 µM | 53.6 µM | 32.2 µM | > 100 µM | 21.5 µM | 74.9 µM | 40.3 µM | > 100 µM | – | – | – | –
2 | COc1ccc(CC(=O)c2ccc(O)cc2O)cc1 | > 100 µM | 59.6 µM | > 100 µM | > 100 µM | 53.4 µM | > 100 µM | > 100 µM | > 100 µM | > 100 µM | > 100 µM | > 100 µM | > 100 µM | > 100 µM | > 100 µM | 40.3 µM | > 100 µM | > 100 µM | > 100 µM | > 100 µM | > 100 µM
3 | COc1cc([N+](=O)[O-])c(OC)cc1-c1nc2sccn2c1/C=N/N=C(N)N | > 100 µM | 22.9 µM | 66.3 µM | 94.8 µM | 10.4 µM | 50 µM | 54.2 µM | 15 µM | > 100 µM | 46.5 µM | 24.2 µM | 69.5 µM | 27.9 µM | 63.4 µM | 1.03 µM | > 100 µM | 30.9 µM | 36.5 µM | 21.5 µM | 12 µM
4 | COC(=N)c1c(N)[n+]([O-])c2ccc(F)cc2[n+]1[O-] | > 100 µM | > 100 µM | > 100 µM | > 100 µM | 18.1 µM | 86.5 µM | > 100 µM | > 100 µM | > 100 µM | > 100 µM | > 100 µM | > 100 µM | > 100 µM | > 100 µM | > 100 µM | > 100 µM | > 100 µM | > 100 µM | > 100 µM | > 100 µM
5 | N#Cc1nc2c(S(=O)(=O)c3ccc(Cl)cc3)c(N)n(CCCN3CCOCC3)c2nc1C#N | 24.5 µM | 2.64 µM | 13.8 µM | > 100 µM | – | – | 22.7 µM | 2.99 µM | 14.1 µM | 7.9 µM | 3.58 µM | 14.4 µM | 4.11 µM | 15.7 µM | 3 µM | 31 µM | 6.77 µM | 27.1 µM | 5.91 µM | 2.31 µM
6 | COc1cc(/C=C/C(=O)c2ccc(F)cc2)ccc1OCCCN1CCN(CC(=O)Nc2ccc(Cl)cc2C(=O)c2ccccc2Cl)CC1 | 32.1 µM | 11 µM | 32.5 µM | 44.2 µM | 6.17 µM | 41.6 µM | 47.9 µM | 2.73 µM | 10.7 µM | 23.3 µM | 11.6 µM | 27.1 µM | 3.68 µM | 12.6 µM | 3.6 µM | > 100 µM | 12.6 µM | 17.4 µM | 9.51 µM | 10.2 µM
7 | O=C1c2ccc3c4c(ccc(c24)C(=O)N1CCCNCc1ccccc1Cl)C(=O)N(CCCNCc1ccccc1Cl)C3=O | 1.28 µM | 0.317 µM | 1.46 µM | 3.18 µM | 0.275 µM | 1.63 µM | 0.334 µM | 0.128 µM | 0.361 µM | 1.38 µM | 0.25 µM | 2.2 µM | 0.776 µM | 1.48 µM | 0.183 µM | 1.12 µM | 0.415 µM | 0.862 µM | 0.125 µM | 0.669 µM
8 | Cc1cnc(CNC(=O)c2c(=O)c3ccc(N4CCCN(C)CC4)nc3n3c2sc2ccccc23)cn1 | 27 µM | 2.49 µM | 18 µM | 28.9 µM | 1.89 µM | 22.2 µM | 32.9 µM | 0.237 µM | 3.9 µM | 8.51 µM | 2.79 µM | 8.36 µM | 14.8 µM | 30.5 µM | 1.82 µM | 10.6 µM | 12.5 µM | 12.5 µM | 17 µM | 3.76 µM
9 | O=[N+]([O-])c1ccc(N=Nc2ccc(O)c3ccccc23)cc1 | 21.8 µM | 4.17 µM | > 100 µM | 47.7 µM | 5.27 µM | > 100 µM | 14.6 µM | 3.33 µM | > 100 µM | > 100 µM | 1.43 µM | 20.8 µM | 6.59 µM | > 100 µM | 3.13 µM | > 100 µM | 3.23 µM | 11.9 µM | 3.6 µM | 10.3 µM
10 | O=[N+]([O-])c1ccc(N2CCC(CCCC3CCN(c4ccc([N+](=O)[O-])cc4[N+](=O)[O-])CC3)CC2)c([N+](=O)[O-])c1 | 32 µM | – | 41.1 µM | 37.5 µM | – | 25.3 µM | 28.9 µM | – | 57.4 µM | 36.7 µM | – | 36 µM | – | 28.9 µM | – | 55.9 µM | – | – | – | –
11 | O=c1c(O)c(-c2ccc(O)c(O)c2)oc2cc(O)cc(O)c12 | 47.3 µM and > 100 µM | 20.4 µM | > 100 µM | 68.5 µM and > 100 µM | 11.5 µM | > 100 µM | > 100 µM | 26.7 µM | > 100 µM and 59.8 µM | 37.2 µM and > 100 µM | 9.36 µM | > 100 µM | 17.9 µM | > 100 µM | 5.2 µM | > 100 µM | 15.1 µM | 18.3 µM | 37.4 µM | 6.04 µM
12 | COc1ccc(/C=C(\C(=O)NCc2cccnc2)S(=O)(=O)c2ccccc2)cc1OC | 12.7 µM | 3.29 µM | 11.7 µM | 13.2 µM | 2.22 µM | 11.3 µM | 13.9 µM | 2.95 µM | 10.9 µM | 6.74 µM | 2.93 µM | 10.6 µM | 3.06 µM | 10.5 µM | 3.33 µM | > 100 µM | 3.01 µM | 4.1 µM | 3.03 µM | 2.49 µM
